Measurements reported in ChEMBL document CHEMBL1955750, “Benzodiazepines and benzotriazepines as protein interaction inhibitors targeting bromodomains of the BET family” (Bioorg Med Chem, 2012).
Active and inactive are the calls of the source. The rule behind the calls is not given here.

What was measured:
[1] = target: Bromodomain-containing protein 2 (Homo sapiens) (UniProt P25440); experiment: Binding affinity to BRD2-BD1 assessed as change in melting temperature at 10 uM by protein stability shift assay
Sequence of Bromodomain-containing protein 2 (Homo sapiens) (P25440 whole entry, looked up): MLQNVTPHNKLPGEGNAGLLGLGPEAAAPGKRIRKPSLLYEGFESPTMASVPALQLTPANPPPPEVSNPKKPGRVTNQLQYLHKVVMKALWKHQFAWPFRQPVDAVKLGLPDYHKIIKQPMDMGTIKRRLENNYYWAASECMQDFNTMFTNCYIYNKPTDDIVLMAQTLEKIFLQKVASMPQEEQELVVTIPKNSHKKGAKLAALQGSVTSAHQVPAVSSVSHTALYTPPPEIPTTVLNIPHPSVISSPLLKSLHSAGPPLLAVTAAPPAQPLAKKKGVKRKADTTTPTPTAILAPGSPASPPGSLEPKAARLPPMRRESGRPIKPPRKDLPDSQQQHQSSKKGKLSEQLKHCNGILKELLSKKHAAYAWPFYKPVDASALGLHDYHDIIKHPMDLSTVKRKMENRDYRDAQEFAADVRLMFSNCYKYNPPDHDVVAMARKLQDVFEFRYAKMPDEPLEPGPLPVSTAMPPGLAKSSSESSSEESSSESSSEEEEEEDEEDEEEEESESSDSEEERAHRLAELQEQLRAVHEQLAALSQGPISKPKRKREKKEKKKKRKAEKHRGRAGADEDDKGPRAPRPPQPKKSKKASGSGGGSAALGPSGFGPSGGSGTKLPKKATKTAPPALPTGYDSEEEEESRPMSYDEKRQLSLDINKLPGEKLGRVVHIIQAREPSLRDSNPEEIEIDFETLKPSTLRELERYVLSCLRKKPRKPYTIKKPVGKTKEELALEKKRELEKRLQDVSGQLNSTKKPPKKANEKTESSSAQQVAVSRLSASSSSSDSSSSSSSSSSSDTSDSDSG

[2] = target: Bromodomain-containing protein 3 (Homo sapiens) (UniProt Q15059); experiment: Binding affinity to BRD3-BD1 assessed as change in melting temperature at 10 uM by protein stability shift assay
Sequence of Bromodomain-containing protein 3 (Homo sapiens) (Q15059 2-726 limits assumed): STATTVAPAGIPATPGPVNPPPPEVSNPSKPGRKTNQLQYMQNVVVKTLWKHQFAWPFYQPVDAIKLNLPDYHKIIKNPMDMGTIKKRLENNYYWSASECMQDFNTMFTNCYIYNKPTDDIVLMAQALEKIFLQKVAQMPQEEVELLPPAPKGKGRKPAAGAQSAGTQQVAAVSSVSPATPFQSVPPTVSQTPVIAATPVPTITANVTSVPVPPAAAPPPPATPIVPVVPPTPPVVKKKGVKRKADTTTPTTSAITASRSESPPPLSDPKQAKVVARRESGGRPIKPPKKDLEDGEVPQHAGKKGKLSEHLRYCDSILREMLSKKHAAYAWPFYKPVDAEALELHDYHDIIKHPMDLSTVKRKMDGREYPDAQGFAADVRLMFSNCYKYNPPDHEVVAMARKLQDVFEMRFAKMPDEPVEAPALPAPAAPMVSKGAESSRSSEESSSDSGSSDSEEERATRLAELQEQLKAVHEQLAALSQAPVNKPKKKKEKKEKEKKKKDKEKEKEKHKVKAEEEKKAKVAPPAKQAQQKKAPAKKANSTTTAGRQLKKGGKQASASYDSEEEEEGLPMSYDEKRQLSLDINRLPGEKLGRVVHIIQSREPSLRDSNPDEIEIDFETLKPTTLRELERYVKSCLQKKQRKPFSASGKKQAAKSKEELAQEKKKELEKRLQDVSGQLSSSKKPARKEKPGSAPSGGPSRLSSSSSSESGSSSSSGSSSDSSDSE

[3] = target: T1, Bromodomain-containing protein 4 (Homo sapiens, UniProt O60885); experiment: Binding affinity to BRD4-BD1 assessed as change in melting temperature at 10 uM by protein stability shift assay
[4] = target: Bromodomain testis-specific protein (Homo sapiens) (UniProt Q58F21); experiment: Binding affinity to BRDT-BD1 assessed as change in melting temperature at 10 uM by protein stability shift assay
[5] = target: Bromodomain adjacent to zinc finger domain protein 2B (Homo sapiens) (UniProt Q9UIF8); experiment: Binding affinity to BAZ2B assessed as change in melting temperature at 10 uM by protein stability shift assay
[6] = target: CREB-binding protein (Homo sapiens) (UniProt Q92793); experiment: Binding affinity to CREBBP assessed as change in melting temperature at 10 uM by protein stability shift assay
[7] = Binding affinity to LOC93349 assessed as change in melting temperature at 10 uM by protein stability shift assay
[8] = target: Protein polybromo-1 (Homo sapiens) (UniProt Q86U86); experiment: Binding affinity to PB1 assessed as change in melting temperature at 10 uM by protein stability shift assay
Sequence of Protein polybromo-1 (Homo sapiens) (Q86U86 whole entry): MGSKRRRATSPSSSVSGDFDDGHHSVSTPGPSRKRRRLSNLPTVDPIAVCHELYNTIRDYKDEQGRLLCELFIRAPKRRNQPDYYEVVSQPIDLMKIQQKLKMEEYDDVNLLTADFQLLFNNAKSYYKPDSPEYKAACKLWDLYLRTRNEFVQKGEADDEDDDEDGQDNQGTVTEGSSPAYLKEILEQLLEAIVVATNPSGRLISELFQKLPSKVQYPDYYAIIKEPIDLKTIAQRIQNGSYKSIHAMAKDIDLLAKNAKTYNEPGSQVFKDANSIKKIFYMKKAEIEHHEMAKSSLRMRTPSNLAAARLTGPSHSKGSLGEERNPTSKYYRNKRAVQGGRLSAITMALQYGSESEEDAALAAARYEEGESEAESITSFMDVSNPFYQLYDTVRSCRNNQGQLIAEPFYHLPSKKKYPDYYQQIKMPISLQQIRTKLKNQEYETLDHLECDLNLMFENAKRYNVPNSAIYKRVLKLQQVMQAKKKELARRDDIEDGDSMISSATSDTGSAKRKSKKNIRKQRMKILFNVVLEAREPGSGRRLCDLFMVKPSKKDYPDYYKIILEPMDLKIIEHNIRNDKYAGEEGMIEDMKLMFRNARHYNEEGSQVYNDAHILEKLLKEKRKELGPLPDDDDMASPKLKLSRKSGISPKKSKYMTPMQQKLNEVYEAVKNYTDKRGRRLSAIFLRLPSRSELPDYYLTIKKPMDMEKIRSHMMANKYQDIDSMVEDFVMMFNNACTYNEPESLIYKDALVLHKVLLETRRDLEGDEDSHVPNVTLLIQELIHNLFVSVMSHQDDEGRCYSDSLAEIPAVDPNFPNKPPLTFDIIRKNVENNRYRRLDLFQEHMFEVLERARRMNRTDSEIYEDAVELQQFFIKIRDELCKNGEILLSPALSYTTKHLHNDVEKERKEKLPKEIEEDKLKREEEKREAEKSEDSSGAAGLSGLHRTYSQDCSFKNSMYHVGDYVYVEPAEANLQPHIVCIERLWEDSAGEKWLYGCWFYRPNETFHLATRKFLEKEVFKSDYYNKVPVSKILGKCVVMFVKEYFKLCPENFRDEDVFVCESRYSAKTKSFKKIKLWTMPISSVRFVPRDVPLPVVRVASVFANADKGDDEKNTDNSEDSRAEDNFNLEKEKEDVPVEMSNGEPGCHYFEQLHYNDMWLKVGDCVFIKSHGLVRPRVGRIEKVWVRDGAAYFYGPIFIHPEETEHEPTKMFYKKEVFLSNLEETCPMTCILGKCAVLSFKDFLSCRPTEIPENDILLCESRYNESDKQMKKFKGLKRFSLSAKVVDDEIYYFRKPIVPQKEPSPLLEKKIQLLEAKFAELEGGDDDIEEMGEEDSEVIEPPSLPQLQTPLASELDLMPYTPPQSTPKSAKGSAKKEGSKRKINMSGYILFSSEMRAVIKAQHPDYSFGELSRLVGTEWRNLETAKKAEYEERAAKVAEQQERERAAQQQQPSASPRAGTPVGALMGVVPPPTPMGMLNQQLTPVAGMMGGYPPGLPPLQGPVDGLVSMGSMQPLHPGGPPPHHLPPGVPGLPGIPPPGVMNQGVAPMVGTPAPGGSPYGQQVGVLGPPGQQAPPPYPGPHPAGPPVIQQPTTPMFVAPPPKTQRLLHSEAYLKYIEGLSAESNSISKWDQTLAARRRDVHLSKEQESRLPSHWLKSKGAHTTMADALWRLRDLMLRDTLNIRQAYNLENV

[9] = target: Histone acetyltransferase KAT2B (Homo sapiens) (UniProt Q92831); experiment: Binding affinity to PCAF assessed as change in melting temperature at 10 uM by protein stability shift assay
Sequence of Histone acetyltransferase KAT2B (Homo sapiens) (Q92831 whole entry, looked up): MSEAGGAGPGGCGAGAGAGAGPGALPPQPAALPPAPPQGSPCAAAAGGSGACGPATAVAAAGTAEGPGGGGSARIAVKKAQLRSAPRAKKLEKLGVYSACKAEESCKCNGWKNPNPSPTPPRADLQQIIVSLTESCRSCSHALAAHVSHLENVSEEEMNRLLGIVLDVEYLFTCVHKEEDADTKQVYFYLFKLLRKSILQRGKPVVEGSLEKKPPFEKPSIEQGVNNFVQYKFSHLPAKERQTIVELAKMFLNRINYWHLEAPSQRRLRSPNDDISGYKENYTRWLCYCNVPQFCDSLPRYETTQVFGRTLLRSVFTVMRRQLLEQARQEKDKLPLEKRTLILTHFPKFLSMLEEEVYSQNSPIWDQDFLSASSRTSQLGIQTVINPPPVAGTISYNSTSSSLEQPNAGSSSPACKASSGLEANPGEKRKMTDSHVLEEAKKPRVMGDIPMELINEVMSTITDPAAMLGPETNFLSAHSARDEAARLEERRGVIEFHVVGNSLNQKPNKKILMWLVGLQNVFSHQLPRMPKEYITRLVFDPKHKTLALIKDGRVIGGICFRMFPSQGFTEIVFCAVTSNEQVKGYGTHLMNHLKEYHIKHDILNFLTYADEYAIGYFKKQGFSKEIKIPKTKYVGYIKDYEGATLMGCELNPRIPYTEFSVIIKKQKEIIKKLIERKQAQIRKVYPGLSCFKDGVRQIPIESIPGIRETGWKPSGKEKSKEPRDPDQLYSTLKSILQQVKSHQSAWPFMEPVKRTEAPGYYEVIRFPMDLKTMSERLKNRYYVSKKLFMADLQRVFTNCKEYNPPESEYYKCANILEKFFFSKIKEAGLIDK

[10] = target: Bromodomain-containing protein 2 (Homo sapiens) (UniProt P25440); experiment: Binding affinity to BRD2-BD2 assessed as change in melting temperature at 10 uM by protein stability shift assay
[11] = target: Bromodomain-containing protein 3 (Homo sapiens) (UniProt Q15059); experiment: Binding affinity to BRD3-BD2 assessed as change in melting temperature at 10 uM by protein stability shift assay
[12] = target: T1, Bromodomain-containing protein 4; experiment: Binding affinity to BRD4-BD2 assessed as change in melting temperature at 10 uM by protein stability shift assay
[13] = target: T1, Bromodomain-containing protein 4
Description: Binding affinity to BRD4-BD1 assessed as change in melting temperature by isothermal titration calorimetry

[14] = target: Bromodomain-containing protein 2 (Homo sapiens) (UniProt P25440); experiment: Binding affinity to BRD2-BD1 assessed as change in melting temperature at 100 uM by protein stability shift assay
[15] = target: Bromodomain-containing protein 3 (Homo sapiens) (UniProt Q15059); experiment: Binding affinity to BRD3-BD1 assessed as change in melting temperature at 100 uM by protein stability shift assay
[16] = target: T1, Bromodomain-containing protein 4; experiment: Binding affinity to BRD4-BD1 assessed as change in melting temperature at 100 uM by protein stability shift assay
[17] = target: Bromodomain testis-specific protein (Homo sapiens) (UniProt Q58F21); experiment: Binding affinity to BRDT-BD1 assessed as change in melting temperature at 100 uM by protein stability shift assay
[18] = target: Bromodomain adjacent to zinc finger domain protein 2B (Homo sapiens) (UniProt Q9UIF8); experiment: Binding affinity to BAZ2B assessed as change in melting temperature at 100 uM by protein stability shift assay
[19] = target: CREB-binding protein (Homo sapiens) (UniProt Q92793); experiment: Binding affinity to CREBBP assessed as change in melting temperature at 100 uM by protein stability shift assay
[20] = Binding affinity to LOC93349 assessed as change in melting temperature at 100 uM by protein stability shift assay
[21] = target: Protein polybromo-1 (Homo sapiens) (UniProt Q86U86); experiment: Binding affinity to PB1 assessed as change in melting temperature at 100 uM by protein stability shift assay
[22] = target: Histone acetyltransferase KAT2B (Homo sapiens) (UniProt Q92831); experiment: Binding affinity to PCAF assessed as change in melting temperature at 100 uM by protein stability shift assay
[23] = target: Bromodomain-containing protein 2 (Homo sapiens) (UniProt P25440); experiment: Binding affinity to BRD2-BD2 assessed as change in melting temperature at 100 uM by protein stability shift assay
[24] = target: Bromodomain-containing protein 3 (Homo sapiens) (UniProt Q15059); experiment: Binding affinity to BRD3-BD2 assessed as change in melting temperature at 100 uM by protein stability shift assay
[25] = target: T1, Bromodomain-containing protein 4; experiment: Binding affinity to BRD4-BD2 assessed as change in melting temperature at 100 uM by protein stability shift assay

SMILES	Activity [1]	Activity [2]	Activity [3]	Activity [4]	Activity [5]	Activity [6]	Activity [7]	Activity [8]	ΔTm [14] [°C]	ΔTm [15] [°C]	ΔTm [16] [°C]	ΔTm [17] [°C]	ΔTm [18] [°C]	ΔTm [19] [°C]	ΔTm [20] [°C]	ΔTm [21] [°C]	ΔTm [22] [°C]	ΔTm [23] [°C]	ΔTm [24] [°C]	ΔTm [25] [°C]	other results
Cc1nnc2n1-c1ccc(Cl)cc1C(c1ccccc1)=NC2 [ALPRAZOLAM]	Active	Active	Active	Active	inactive	Active	inactive	Active	–	–	–	–	–	–	–	–	–	–	–	–	Activity [9]: inactive; Activity [10]: Active; Activity [11]: Active; Activity [12]: Active; ΔTm [13]: 4.7 °C
Clc1ccc2c(c1)C(c1ccccc1)=NCc1nncn1-2	inactive	Active	Active	inactive	inactive	Active	inactive	inactive	–	–	–	–	–	–	–	–	–	–	–	–	Activity [9]: inactive; Activity [10]: inactive; Activity [11]: Active; Activity [12]: Active
Cc1ncc2n1-c1ccc(Cl)cc1C(c1ccccc1F)=NC2	Active	Active	Active	Active	inactive	Active	inactive	inactive	–	–	–	–	–	–	–	–	–	–	–	–	Activity [9]: inactive; Activity [10]: Active; Activity [11]: Active; Activity [12]: Active
Cc1nnc2n1-c1ccc(Cl)cc1C(c1ccccc1)=NN2C	Active	Active	Active	Active	inactive	Active	Active	Active	< 2	< 2	< 2	< 2	< 2	< 2	< 2	< 2	< 2	< 2	< 2	< 2	Activity [9]: Active; Activity [10]: Active; Activity [11]: Active; Activity [12]: Active; ΔTm [13]: 4.2 °C
CCC1=NCC(=S)Nc2ccc(Cl)cc21	–	–	–	–	–	–	–	–	< 2	< 2	< 2	< 2	< 2	< 2	< 2	< 2	< 2	< 2	< 2	< 2	–
CN1N=C(c2ccccc2)c2cc(Cl)ccc2-n2c1n[nH]c2=O	–	–	–	–	–	–	–	–	< 2	< 2	< 2	< 2	< 2	< 2	< 2	< 2	< 2	< 2	< 2	< 2	–
CCC1=NCc2nnc(-c3ccncc3)n2-c2ccc(Cl)cc21	–	–	–	–	–	–	–	–	< 2	< 2	< 2	< 2	< 2	< 2	< 2	< 2	< 2	< 2	< 2	< 2	–
CN1N=C(c2ccccc2)c2cc(Cl)ccc2NC1=S	–	–	–	–	–	–	–	–	< 2	< 2	< 2	< 2	< 2	< 2	< 2	< 2	< 2	< 2	< 2	< 2	–
CCC1=NCc2nnc(-c3cccc(OC)c3)n2-c2ccc(Cl)cc21	–	–	–	–	–	–	–	–	< 2	< 2	< 2	< 2	< 2	< 2	< 2	< 2	< 2	< 2	< 2	< 2	–
CCC1=NCc2nnc(C)n2-c2ccc(Cl)cc21	–	–	–	–	–	–	–	–	< 2	< 2	< 2	< 2	< 2	< 2	< 2	< 2	< 2	< 2	< 2	< 2	–
CCC1=NCc2nnc(CC)n2-c2ccc(Cl)cc21	–	–	–	–	–	–	–	–	< 2	< 2	< 2	< 2	< 2	< 2	< 2	< 2	< 2	< 2	< 2	< 2	–
CCOC(=O)c1ncn2c1[C@@H]1CCCN1C(=O)c1cc(OC)ccc1-2	Active	Active	Active	inactive	inactive	inactive	inactive	inactive	–	–	–	–	–	–	–	–	–	–	–	–	Activity [9]: inactive; Activity [10]: inactive; Activity [11]: inactive; Activity [12]: Active
CCC1=NCC(=O)Nc2ccc(Cl)cc21	–	–	–	–	–	–	–	–	< 2	< 2	< 2	< 2	< 2	< 2	< 2	< 2	< 2	< 2	< 2	< 2	–
CCC1=NCc2nnc(-c3ccccc3)n2-c2ccc(Cl)cc21	–	–	–	–	–	–	–	–	< 2	< 2	< 2	< 2	< 2	< 2	< 2	< 2	< 2	< 2	< 2	< 2	–
CN1N=C(c2ccccc2)c2cc(Cl)ccc2-n2c(N)nnc21	–	–	–	–	–	–	–	–	< 2	< 2	< 2	< 2	< 2	< 2	< 2	< 2	< 2	< 2	< 2	< 2	–
CC(=O)NNC1=Nc2ccc(Cl)cc2C(c2ccccc2)=NN1C	–	–	–	–	–	–	–	–	< 2	< 2	< 2	< 2	< 2	< 2	< 2	< 2	< 2	< 2	< 2	< 2	–
